Source: US20030187076A1, “Non-steroidal analogs of 2-methoxyestradiol” (priority 2002, published 2003)

Key:
[1] = system: chick embryo chorioallantoic membrane; experiment: chick embryo chorioallantoic membrane (CAM) assay; format: in vivo; conditions: 100 μg methylcellulose disk, after 48 hours
Description: Anti-proliferative activity can be evaluated in situ by testing the ability of the new non-steroidal estradiol derivatives to inhibit the proliferation of new blood vessel cells (angiogenesis). A suitable assay is the chick embryo chorioallantoic membrane (CAM) assay described by Crum et al. Science 230:1375 (1985). See also, U.S. Pat. No. 5,001,116, hereby incorporated by reference, which describes the CAM assay. Briefly, fertilized chick embryos are removed from their shell on day 3 or 4, and a methylcellulose disc containing the drug is implanted on the chorioallantoic membrane. The embryos are examined 48 hours later and, if a clear avascular zone appears around the methylcellulose disc, the diameter of that zone is measured.

MCF-7 cell = experiment: estrogen dependent MCF-7 cell proliferation; format: cell-based; conditions: over a wide range of concentrations
Description: 2-Methoxyestradiol is an endogenous, steroidal metabolite of estradiol (E2) that has potent anti-proliferative activity and induces apoptosis in a wide variety of tumor and non-tumor cell lines. […] What is needed is a series of compounds that constitute analogs of 2-methoxyestradiol which are non-steroidal in structure and which will have similar biological properties to 2-methoxyestradiol and that can be used in similar applications.

[2] = system: vascular endothelial cell; conditions: endothelial versus tumor cell proliferation; cited from earlier work

SMILES | inhibition of cell mitosis and growth of new blood vessels [1] | estrogenic activity (MCF-7 cell) | half-maximal inhibition of endothelial cell proliferation, concentration lower than for tumor cell proliferation [2] [logs]
COc1cc2c(cc1O)CC[C@@H]1[C@@H]2CC[C@]2(C)[C@@H](O)CC[C@@H]12 [2-methoxyestradiol] | inhibit cell mitosis and the growth of new blood vessels | not estrogenic | –
CO[C@@H]1[C@H](OC(=O)NC(=O)CCl)CC[C@]2(CO2)[C@H]1[C@@]1(C)O[C@@H]1CC=C(C)C [AGM-1470] | – | – | 4
